Source: patent US6020521A, “Macrolide LHRH antagonists” (Abbott Laboratories, priority 1998, dated 2000)
pKi: −log10 of the molar value.

Biological target: T1, LHRH rat pituitary receptor (Rattus norvegicus, UniProt P30969)
T1 construct: from tissue; host or cells: rat pituitary
T1 sequence (P30969 1-327): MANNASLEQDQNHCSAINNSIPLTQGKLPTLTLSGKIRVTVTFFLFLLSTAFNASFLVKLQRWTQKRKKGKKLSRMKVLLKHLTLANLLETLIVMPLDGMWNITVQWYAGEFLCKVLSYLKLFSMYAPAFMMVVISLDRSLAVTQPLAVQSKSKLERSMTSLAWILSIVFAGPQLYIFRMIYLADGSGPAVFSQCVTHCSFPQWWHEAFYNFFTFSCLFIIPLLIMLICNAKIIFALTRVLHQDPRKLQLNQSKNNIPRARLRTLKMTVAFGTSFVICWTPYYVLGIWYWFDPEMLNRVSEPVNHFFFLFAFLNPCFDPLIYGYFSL
Experiment: LHRH rat pituitary receptor binding (pKI)
Conditions: receptor binding affinity, negative logarithm of the equilibrium dissociation constants
Method: Representative compounds of the present invention were evaluated in in vitro tests for LHRH rat pituitary receptor binding (pKI) and for LH inhibition from rat pituitary cells for antagonist potency (pA2). The tests employed the methods detailed in F. Haviv, et al. J. Med. Chem., 32: 2340-2344 (1989). The receptor binding affinity (pKI) is the negative logarithm of the equilibrium dissociation constants.

SMILES	pKi
CC[C@H]1OC(=O)[C@H](C)[C@@H](OC(=O)N2C(=O)OC[C@@H]2C)[C@H](C)[C@@H](O[C@@H]2O[C@H](C)C[C@H](N(CC)C(C)C)[C@H]2O)[C@](C)(OC)C[C@@H](C)C(=O)[C@H](C)[C@H]2N(CCc3ccc(Cl)c(Cl)c3)C(=O)O[C@]12C [Example 20, 11-Deoxy-11-[carboxy(3,4-dichlorophenethyl)amino]-3-O-[4-(S)-methyl-oxazolidin-2-one]carbamoyl-5-O-(3'-bis-N-desmethyl-3'-N-ethyl-3'-N-isopropyl)desosaminyl-6-O-methyl-erythronolide A 11,12-(cyclic carbamate)]	9.23
CC[C@H]1OC(=O)[C@H](C)[C@@H](OC(=O)N2C(=O)OC[C@@H]2C)[C@H](C)[C@@H](O[C@@H]2O[C@H](C)C[C@H](N(C)C3CCCC3)[C@H]2O)[C@](C)(OC)C[C@@H](C)C(=O)[C@H](C)[C@H]2N(CCc3ccc(F)cc3)C(=O)O[C@]12C [Example 30, 11-Deoxy-11-[carboxy(4-fluorophenethyl)amino]-3-O-[4-(S)-methyl-oxazolidin-2-one]carbamoyl-5-O-(3'-N-desmethyl-3'-N-cyclopentyl)desosaminyl-6-O-methyl-erythronolide A 11,12-(cyclic carbamate)]	9.89
CC[C@H]1OC(=O)[C@H](C)[C@@H](OC(=O)N2C(=O)OC[C@@H]2C)[C@H](C)[C@@H](O[C@@H]2O[C@H](C)C[C@H](N(C)CC(C)C)[C@H]2O)[C@](C)(OC)C[C@@H](C)C(=O)[C@H](C)[C@H]2N(CCc3ccc(Cl)c(Cl)c3)C(=O)O[C@]12C [Example 17, 11-Deoxy-11-[carboxy(3,4-dichlorophenethyl)amino]-3-O-[4-(S)-methyl-oxazolidin-2-one]carbamoyl-5-O-(3'-N-desmethyl-3'-N-isobutyl)desosaminyl-6-O-methyl-erythronolide A 11,12-(cyclic carbamate)]	9.25
CC[C@H]1OC(=O)[C@H](C)[C@@H](OC(=O)N2C(=O)OC[C@@H]2C)[C@H](C)[C@@H](O[C@@H]2O[C@H](C)C[C@H](NCC3CC3)[C@H]2O)[C@](C)(OC)C[C@@H](C)C(=O)[C@H](C)[C@H]2N(CCc3ccc(Cl)c(Cl)c3)C(=O)O[C@]12C [Example 45, 11-Deoxy-11-[carboxy(3,4-dichlorophenethyl)amino]-3-O-[4-(S)-methyl-oxazolidin-2-one]carbamoyl-5-O-(3'-bis-N-desmethyl-3'-N-cyclopropylmethyl)desosaminyl-6-O-methyl-erythronolide A 11,12-(cyclic carbamate)]	8.09

More lines, in order of rising pKi, values ahead:

pKi	SMILES
8.27	CC[C@H]1OC(=O)[C@H](C)[C@@H](OC(=O)N2C(=O)OC[C@H]2C)[C@H](C)[C@@H](O[C@@H]2O[C@H](C)C[C@H](N(C)CC3CC3)[C@H]2O)[C@](C)(OC)C[C@@H](C)C(=O)[C@H](C)[C@H]2N(CCc3ccc(Cl)c(Cl)c3)C(=O)O[C@]12C [Example 37, 11-Deoxy-11-[carboxy(3,4-dichlorophenethyl)amino]-3-O-[4-(R)-methyl-oxazolidin-2-one]carbamoyl-5-O-(3'-N-desmethyl-3'-N-cyclopropylmethyl)desosaminyl-6-O-methyl-erythronolide A 11,12-(cyclic carbamate)]
9.50	CC[C@H]1OC(=O)[C@H](C)[C@@H](OC(=O)N2C(=O)OC[C@@H]2C)[C@H](C)[C@@H](O[C@@H]2O[C@H](C)C[C@H](N(C)CC3CC3)[C@H]2O)[C@](C)(OC)C[C@@H](C)C(=O)[C@H](C)[C@H]2N(CCc3ccc(F)cc3)C(=O)O[C@]12C [Example 28, 11-Deoxy-11-[carboxy(4-fluorophenethyl)amino]-3-O-[4-(S)-methyl-oxazolidin-2-one]carbamoyl-5-O-(3'-N-desmethyl-3'-N-cyclopropylmethyl)desosaminyl-6-O-methyl-erythronolide A 11,12-(cyclic carbamate)]
